What follows are compounds tested on ATF4 luciferase reporter (assay: ATF4 luciferase reporter assay (Cell-luc) in HEK293T cells). Settings: ATF4-luciferase reporter.
Type: cell-based, human
Source text: FIGS. 1A-1C. […]
To identify inhibitors of PERK signaling, we engineered a reporter that allows monitoring of PERK activation in living cells. To this end, we constructed a retroviral vector containing the open-reading frame of firefly luciferase fused to the 5′UTR of ATF4 mRNA (FIG. 1A), which contains two short open-reading frames (uORFs) that control ATF4 translation in a stress-dependent manner. After infection, we established a HEK293T cell line harboring the stably integrated reporter. […] This format was used to screen 106,281 compounds covering a wide chemical space. We identified 460 hits (0.43%) (FIG. 1C), which were further validated in an 8-point dose-response assay using the same reporter. We further triaged the compounds by discarding inhibitors that also affected the IRE1 branch of the UPR using an XBP1-luciferase splicing reporter. […] We next used an orthogonal secondary screen that employed a different reporter (bi-cistronic ATF4-dGFPIRES-mCherry) stably integrated into a different cell line (U20S cells). The read-out of this latter screen was microscopy-based, which allowed us to simultaneously assess acute toxicity by cell counting, further reducing the number of viable hits to 77. As a tertiary screen, we tested compounds for their ability to inhibit ER stress-elicited induction of endogenous ATF4 by Western blot analysis. Twenty-eight compounds passed this test and were analyzed further.
ATF4 reporters were constructed by fusing the human full-length ATF4 5′-UTR (NCBI Accession BC022088.2) in front of the firefly luciferase (FLuc) or a destabilized eGFP (dEGFP) coding sequences lacking the initiator methionine.
The ATF4-FLuc reporter was generated by cloning a PCR-product containing the ATF4 full-length 5′-UTR (from +1 position a the transcription start site down to one nucleotide after the terminator codon of the second uORF) flanked by KpnI/XhoI and BglII sites at the 5′ and 3′ ends, respectively, into the KpnI-BglII sites of pCAX-F-XBP1-Luc. The resulting construct, pCAX-ATF4-FLuc, was then digested with BamHI, blunted with T4 DNA polymerase, and then digested with XhoI. The resulting fragment was then subcloned into the retroviral expression vector pLPCX (Clontech) after digesting it with HindIII, blunting with T4 DNA polymerase and then digesting with XhoI to generate pLPCX-ATF4-FLuc (DAA-312). DAA-312 was used to produce recombinant retroviruses using standard methods and the resulting viral supernatant was used to transduce HEK293T cells, which were then subsequently selected with puromycin to generate a stable cell line employed in the primary screen.
HEK293T cells carrying the ATF4 luciferase reporter were plated on poly-lysine coated 384 well plates (Greiner) at 30,000 cells per well. […] Luminescence was measured using One Glo (Promega) as specified by the manufacturer. […] Thus, these were considered unique to the PERK branch and were cherry-picked for further analysis.

SMILES | potency of trans-ISRIB relative to cis-ISRIB [fold]
O=C(COc1ccc(Cl)cc1)N[C@H]1CC[C@H](NC(=O)COc2ccc(Cl)cc2)CC1 [Trans-ISRIB, 2-(4-Chlorophenoxy)-N-[(1r, 4r)-4-[2-(4-chlorophenoxy)acetamido]cyclohexyl]acetamide] | 100

Same assay, conditions: ATF4 luciferase reporter, HEK293T cells; read-out: IC50 (nM) Cell-luc

SMILES | IC50 [nM]
C#CCN(C(=O)COc1ccc(Cl)cc1)[C@H]1CC[C@H](NC(=O)COc2ccc(Cl)cc2)CC1 [755854.1] | 2700
C#CCN(C(=O)COc1ccc(Cl)cc1)[C@H]1CC[C@H](NC(=O)COc2ccc(Cl)cc2)CC1 [755854.2] | 440
C#CCN(C(=O)COc1ccc(Cl)cc1)[C@H]1CC[C@H](NC(=O)COc2ccc(Cl)cc2)CC1 [755854.3] | 100
C#CCN(C(=O)COc1ccc(Cl)cc1)[C@H]1CC[C@H](NC(=O)COc2ccc(Cl)cc2)CC1 [755854.4] | 64
N=C(COc1ccc(Cl)cc1)N[C@H]1CC[C@H](NC(=O)COc2ccc(Cl)cc2)CC1 [757264-L3] | 60
N=C(COc1ccc(Cl)cc1)N[C@H]1CC[C@H](NC(=O)COc2ccc(Cl)cc2)CC1 [757264.1] | 100
N=C(COc1ccc(Cl)cc1)N[C@H]1CC[C@H](NC(=O)COc2ccc(Cl)cc2)CC1 [757264.2] | 34
O=C(COc1ccc([N+](=O)[O-])cc1)N[C@H]1CC[C@H](NC(=O)COc2ccc([N+](=O)[O-])cc2)CC1 [compound 757130] | > 10000
O=C(COc1ccc(Cl)cc1)N[C@H]1CC[C@H](NC(=O)COc2ccc(Cl)cc2[N+](=O)[O-])CC1 [compound 843987] | 75

Same assay, conditions: Homo sapiens, HEK-293T, ATF4 luciferase reporter, HEK293T cells; read-out: IC50 (nM) Cell-luc

SMILES | IC50 [nM]
O=C(COc1ccc(Cl)cc1)N[C@H]1CC[C@H](NC(=O)COc2ccc(Cl)cc2)CC1 [750213.2] | 3
O=C(COc1ccc(Cl)cc1)Nc1ccc(NC(=O)COc2ccc(Cl)cc2)cc1 [compound 102509] | 53
COc1ccc(OCC(=O)N[C@H]2CC[C@H](NC(=O)COc3ccc(Cl)cc3)CC2)cc1 [compound 751591] | 250
O=C(COc1ccc(Cl)cc1)N[C@H]1CC[C@H](NC(=O)COc2ccc(OCc3ccccc3)cc2)CC1 [compound 751592] | > 10000
O=C(COc1ccccc1)N[C@H]1CC[C@H](NC(=O)COc2ccc(Cl)cc2)CC1 [compound 751593] | 384
O=C(COc1ccc(Cl)cc1)N[C@H]1CC[C@H](NC(=O)COc2ccc(Cl)cc2Cl)CC1 [compound 751594] | 69
Cc1ccc(CC(=O)N[C@H]2CC[C@H](NC(=O)COc3ccc(Cl)cc3)CC2)cc1 [compound 751595] | > 10000
O=C(COc1ccc(Cl)cc1)N[C@H]1CC[C@H](NC(=O)c2ccc(Cl)cc2)CC1 [compound 751596] | > 10000
O=C(COc1ccc(O)cc1)N[C@H]1CC[C@H](NC(=O)COc2ccc(Cl)cc2)CC1 [compound 751597] | > 10000
COc1ccc(OCC(=O)N[C@H]2CC[C@H](NC(=O)COc3ccc(OC)cc3)CC2)cc1 [compound 754123] | > 10000
O=C(COc1ccc(Cl)cc1)N[C@H]1CC[C@@H](NC(=O)COc2ccc(Cl)cc2Cl)CC1 [compound 754124] | > 10000
O=C(CCc1ccc(Cl)cc1)N[C@H]1CC[C@H](NC(=O)CCc2ccc(Cl)cc2)CC1 [compound 754125] | > 10000
Cc1ccc(OCC(=O)N[C@H]2CC[C@H](NC(=O)COc3ccc(C)cc3)CC2)cc1 [compound 754126] | 327
O=C(COc1ccc(C(F)(F)F)cc1)N[C@H]1CC[C@H](NC(=O)COc2ccc(C(F)(F)F)cc2)CC1 [compound 754127] | 13
Cc1ccc(OCC(=O)N[C@H]2CC[C@H](NC(=O)COc3ccc(Cl)cc3)CC2)cc1 [compound 754128] | 95
O=C(COc1ccc(Cl)cc1)N[C@H]1C[C@H](NC(=O)COc2ccc(Cl)cc2)C1 [compound 755855] | 142
O=C(COc1ccc(Cl)cc1)N[C@H]1C[C@@H](NC(=O)COc2ccc(Cl)cc2)C1 [compound 755856] | 1000
N#Cc1ccc(OCC(=O)N[C@H]2CC[C@H](NC(=O)COc3ccc(C#N)cc3)CC2)cc1 [compound 757095] | > 10000
C[S+]([O-])c1ccc(OCC(=O)N[C@H]2CC[C@H](NC(=O)COc3ccc([S+](C)[O-])cc3)CC2)cc1 (stereo partly shown) [compound 757096] | > 10000
O=C(COc1ccc(F)cc1)N[C@H]1CC[C@H](NC(=O)COc2ccc(F)cc2)CC1 [compound 757131] | 270
C#C[C@]1(NC(=O)COc2ccc(Cl)cc2)CC[C@@H](NC(=O)COc2ccc(Cl)cc2)CC1 [compound 757132] | 3000
C#C[C@]1(NC(=O)COc2ccc(Cl)cc2)CC[C@H](NC(=O)COc2ccc(Cl)cc2)CC1 [compound 757149] | 37

SMILES | IC50 [nM]
O=C(COc1ccc(F)cc1)N[C@H]1CC[C@H](NC(=O)COc2ccc(Cl)cc2)CC1 [compound 757257] | 48
O=C(COc1ccc(Cl)cc1)N[C@H]1CC[C@H](NC(=O)COc2ccc(C(F)(F)F)cc2)CC1 [compound 757258] | 10
N#Cc1ccc(OCC(=O)N[C@H]2CC[C@H](NC(=O)COc3ccc(Cl)cc3)CC2)cc1 [compound 757259] | 263
C[S+]([O-])c1ccc(OCC(=O)N[C@H]2CC[C@H](NC(=O)COc3ccc(Cl)cc3)CC2)cc1 (stereo partly shown) [compound 757260] | > 10000
O=C(COc1ccc(Cl)cc1)N[C@H]1CC[C@H](NC(=O)CSc2ccc(Cl)cc2)CC1 [compound 757261] | > 10000
O=C(COc1ccc(Cl)cc1)N[C@H]1CC[C@H](NC(=O)C[S+]([O-])c2ccc(Cl)cc2)CC1 (stereo partly shown) [compound 757262] | > 10000
O=C(COc1ccc(Cl)cc1)N[C@H]1CC[C@H](NC(=O)CS(=O)(=O)c2ccc(Cl)cc2)CC1 [compound 757263] | > 10000
O=C(COc1ccc(Cl)cc1)N[C@H]1CC[C@H](NC(=O)CSc2ccccc2)CC1 [compound 811769] | > 10000
O=C(COc1ccc(Cl)cc1)N[C@H]1CC[C@H](NC(=O)CSc2ccc(F)cc2)CC1 [compound 811770] | 900
O=C(COc1ccc(Cl)cc1)N[C@H]1C[C@H](NC(=O)CSc2ccc(Cl)cc2)C1 [compound 811771] | > 10000
O=C(COc1ccc(Cl)cc1)N[C@H]1C[C@H](NC(=O)CSc2ccc(F)cc2)C1 [compound 811772] | > 10000
O=C(COc1ccc(Cl)cc1)N[C@H]1C[C@H](NC(=O)CSc2ccccc2)C1 [compound 811773] | > 10000
O=C(CCCC[C@H]1SCC2NC(=O)NC21)NCCOCCOCCOCCn1cc([C@]2(NC(=O)COc3ccc(Cl)cc3)CC[C@H](NC(=O)COc3ccc(Cl)cc3)CC2)nn1 (stereo partly shown) [compound 835087] | 2700
O=C(CNc1ccc(Cl)cc1)N[C@H]1CC[C@H](NC(=O)COc2ccc(Cl)cc2)CC1 [compound 835089] | 700
O=C(COc1ccc(Cl)cc1)N[C@H]1CC[C@H](NCCOc2ccc(Cl)cc2)CC1 [compound 835195] | 170
O=C(COc1ccc(Cl)cc1)N[C@H]1CC[C@H](N(CCOc2ccc(Cl)cc2)CCOc2ccc(Cl)cc2)CC1 [compound 835196] | 1400
N=C(COc1ccc(Cl)cc1)N[C@H]1CC[C@H](N(Cc2cn(CCOCCOCCOCCNC(=O)CCCC[C@@H]3SCC4NC(=O)NC43)nn2)C(=O)COc2ccc(Cl)cc2)CC1 (stereo partly shown) [compound 835197] | > 10000
CC(=O)c1ccc(OCC(=O)N[C@H]2CC[C@H](NC(=O)COc3ccc(Cl)cc3)CC2)cc1 [compound 843983] | > 10000
CC(=O)c1cccc(OCC(=O)N[C@H]2CC[C@H](NC(=O)COc3ccc(Cl)cc3)CC2)c1 [compound 843984] | 1000
O=C(COc1ccc(Cl)cc1)NCc1cccc(NC(=O)COc2ccc(Cl)cc2)c1 [compound 873882] | > 10000
C[C@@H]1NC(=O)N[C@@H]1CCCCCC(=O)NCCOCCOCCOCCn1cc([C@]2(NC(=O)COc3ccc(Cl)cc3)CC[C@H](NC(=O)COc3ccc(Cl)cc3)CC2)nn1 [compound 873883] | 2600

Same assay, conditions: cultured HEK293T cells; 2 μg/ml tunicamycin, 7 h; synthesized isomers; read-out: IC50, inhibition of the ATF4-luciferase reporter

SMILES | IC50 [nM]
O=C(COc1ccc(Cl)cc1)N[C@H]1CC[C@H](NC(=O)COc2ccc(Cl)cc2)CC1 [Trans-ISRIB, 2-(4-Chlorophenoxy)-N-[(1r, 4r)-4-[2-(4-chlorophenoxy)acetamido]cyclohexyl]acetamide] | 5
O=C(COc1ccc(Cl)cc1)N[C@H]1CC[C@@H](NC(=O)COc2ccc(Cl)cc2)CC1 [cis-ISRIB, 2-(4-chlorophenoxy)-N-[(1s, 4s)-4-[2-(4-chlorophenoxy)acetamido]cyclohexyl]acetamide] | 600

Source: patent publication US9708247B2, “Modulators of the eIF2alpha pathway” (The Regents of the University of California, priority 2013, dated 2017)
